MIC data for 24 compounds are collected here from patent publication US7868135B2, “Compositions of lipopeptide antibiotic derivatives and methods of use thereof” (priority 2003, dated 2011).

Marks after values point to notes of the source that are not given here. Starred links: 1 amine or outer side, 2 acyl side, 3 side chain; linkers in the order of their positions; H or OH if unused. Positions of bridges follow the written chain, without caps; N, C: chain ends. Non-standard residues stand in square brackets, D forms with d. Residues, ends and D or L forms follow the SMILES beside them. ξ: configuration not given here. *: point of attachment. ξAbu(3ξ-NHCOCH2NH2) = CC(NC(=O)CN)C(N)C(=O)O; ξAbu(βξ-NH2) = CC(N[*:3])C(N[*:1])C(=O)[*:2]; Phac(3-amino) = O=C(Cc1cccc(N[*:1])c1)[*:2]; Benzoyl(4-tBu) = CC(C)(C)c1ccc(C(=O)*)cc1; X24 = C/C=C/C(=O)NC(C)C(N[*:1])C(=O)[*:2]; Pentadecanoyl = CCCCCCCCCCCCCCC(=O)*; ξAsp(βξ-Me) = CC(C(=O)O)C(N)C(=O)O; Palmitoyl = CCCCCCCCCCCCCCCC(=O)*; X1 = O=C(Cc1ccc(N[*:1])cc1)[*:2]; ξAbu(3ξ-NH2) = CC(N)C(N)C(=O)O; Lauroyl = CCCCCCCCCCCC(=O)*; Decanoyl = CCCCCCCCCC(=O)*; X19 = CCCCCCCCCCS(=O)(=O)*; Pip = O=C(O)[CH]1CCCCN1; ξD = NC(CC(=O)O)C(=O)O; ξPip = O=C(O)C1CCCCN1; ξV = CC(C)C(N)C(=O)O; ξP = O=C(O)C1CCCN1; OtBu = CC(C)(C)O*

What is called MIC is the lowest concentration found to suppress growth.

One assay concerns Staphylococcus aureus (MSSA). Particulars: 24 h. In short, it runs like this: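 Broth microdilution MIC per NCCLS M7-A6 with doubling serial dilutions, in cation-adjusted Mueller-Hinton broth supplemented with 0.625 mM calcium.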
Consider `CCCCCCCCCC(=O)NCC(=O)NC(CC(=O)O)C(=O)NC1C(=O)N2CCCCC2C(=O)NC(C(C)C(=O)O)C(=O)NC(CC(=O)O)C(=O)NCC(=O)NC(CC(=O)O)C(=O)NCC(=O)NC(C(C)N)C(=O)NC(C(C)C)C(=O)N2CCCC2C(=O)NC1C` (stereo not drawn) [Compound 360, C10-Gly-Amphomycin] (Decanoyl-GD[ξAbu(βξ-NH2)][Pip][ξAsp(βξ-Me)]DGDG[ξAbu(3ξ-NH2)]VP; lactam 3-C; configuration not given here), for which the MIC was more than 64 µg/mL.

In the case of `CCCCCCCCCCCCCCC(=O)NC(CC(=O)O)C(=O)NC1C(=O)N2CCCCC2C(=O)NC(C(C)C(=O)O)C(=O)NC(CC(=O)O)C(=O)NCC(=O)NC(CC(=O)O)C(=O)NCC(=O)NC(C(C)NC(=O)CCCNC(=O)[C@@H](N)CCCCN)C(=O)NC(C(C)C)C(=O)N2CCCC2C(=O)NC1C` (stereo partly drawn) [Compound 156, C15-Amphomycin-9-GABA-Lys], the MIC came out at 1 µg/mL.

With `CCCCCCCCCC(=O)N(C)CC(=O)NC(CC(=O)O)C(=O)NC1C(=O)N2CCCCC2C(=O)NC(C(C)C(=O)O)C(=O)NC(CC(=O)O)C(=O)NCC(=O)NC(CC(=O)O)C(=O)NCC(=O)NC(C(C)N)C(=O)NC(C(C)C)C(=O)N2CCCC2C(=O)NC1C` (stereo not drawn) [Compound 344, C10-Sar-Amphomycin], the MIC was more than 64 µg/mL.

As for `CC(C)C1NC(=O)C(C(C)N)NC(=O)CNC(=O)C(CC(=O)O)NC(=O)CNC(=O)C(CC(=O)O)NC(=O)C(C(C)C(=O)O)NC(=O)C2CCCCN2C(=O)C(NC(=O)C(CC(=O)O)NC(=O)c2ccc(C(C)(C)C)cc2)C(C)NC(=O)C2CCCN2C1=O` (stereo not drawn) [Compound 326, (4-Tbutylbenzoyl)-Amphomycin] ({Benzoyl(4-tBu)}-D[ξAbu(βξ-NH2)][Pip][ξAsp(βξ-Me)]DGDG[ξAbu(3ξ-NH2)]VP; lactam 2-C; configuration not given here), the MIC was more than 64 µg/mL.

Regarding `CCCCCCCCCCCCCCC(=O)N[C@@H](CC(=O)OC(C)(C)C)C(=O)NC(CC(=O)O)C(=O)NC1C(=O)N2CCCCC2C(=O)NC(C(C)C(=O)O)C(=O)NC(CC(=O)O)C(=O)NCC(=O)NC(CC(=O)O)C(=O)NCC(=O)NC(C(C)N)C(=O)NC(C(C)C)C(=O)N2CCCC2C(=O)NC1C` (stereo partly drawn) [Compound 112, C15-[Asp-(OtBu)]-Amphomycin] (Pentadecanoyl-D(OtBu)[ξD][ξAbu(βξ-NH2)][ξPip][ξAsp(βξ-Me)][ξD]G[ξD]G[ξAbu(3ξ-NH2)][ξV][ξP]; lactam 3-C), the MIC came to 0.5 µg/mL.

With `C/C=C/C(=O)NC(C)C1NC(=O)CNC(=O)C(CC(=O)O)NC(=O)CNC(=O)C(CC(=O)O)NC(=O)C(C(C)C(=O)O)NC(=O)C2CCCCN2C(=O)C(NC(=O)C(CC(=O)O)NC(=O)CCCCCCCCCCCCCC)C(C)NC(=O)C2CCCN2C(=O)C(C(C)C)NC1=O` (stereo not drawn) [Compound 218, C15-Amphomycin-9-Crotonyl] (Pentadecanoyl-D[ξAbu(βξ-NH2)][Pip][ξAsp(βξ-Me)]DGDG[X24]VP; lactam 2-C; configuration not given here), the MIC worked out at 8 µg/mL.

As for `CCCCCCCCCCCCCCCC(=O)NCC(=O)NC(CC(=O)O)C(=O)NC1C(=O)N2CCCCC2C(=O)NC(C(C)C(=O)O)C(=O)NC(CC(=O)O)C(=O)NCC(=O)NC(CC(=O)O)C(=O)NCC(=O)NC(C(C)N)C(=O)NC(C(C)C)C(=O)N2CCCC2C(=O)NC1C` (stereo not drawn) [Compound 106, C16-Gly-Amphomycin] (Palmitoyl-GD[ξAbu(βξ-NH2)][Pip][ξAsp(βξ-Me)]DGDG[ξAbu(3ξ-NH2)]VP; lactam 3-C; configuration not given here), the MIC worked out at 0.5 µg/mL.

`CCCCCCCCCCCCCCC(=O)NC(CC(=O)O)C(=O)NC1C(=O)N2CCCCC2C(=O)NC(C(C)C(=O)O)C(=O)NC(CC(=O)O)C(=O)NCC(=O)NC(CC(=O)O)C(=O)NCC(=O)NC(C(C)NC(=O)CCNC(=O)CCCCCN)C(=O)NC(C(C)C)C(=O)N2CCCC2C(=O)NC1C` (stereo not drawn) [Compound 70, C15-Amphomycin-9-(β-Ala)-Ahx]: the MIC stood at 2 µg/mL.

Take `CCCCCCCCCCCCCCC(=O)NC(CC(=O)O)C(=O)NC1C(=O)N2CCCCC2C(=O)NC(C(C)C(=O)O)C(=O)NC(CC(=O)O)C(=O)NCC(=O)NC(CC(=O)O)C(=O)NCC(=O)NC(C(C)NC(=O)CCNC(=O)CCCCN)C(=O)NC(C(C)C)C(=O)N2CCCC2C(=O)NC1C` (stereo not drawn) [Compound 173, C15-Amphomycin-9-(β-Ala)-(5-Ava)]: the MIC was determined as 1 µg/mL.

Turning to `CCCCCCCCCCS(=O)(=O)NCC(=O)NC(CC(=O)O)C(=O)NC1C(=O)N2CCCCC2C(=O)NC(C(C)C(=O)O)C(=O)NC(CC(=O)O)C(=O)NCC(=O)NC(CC(=O)O)C(=O)NCC(=O)NC(C(C)NC(=O)CN)C(=O)NC(C(C)C)C(=O)N2CCCC2C(=O)NC1C` (stereo not drawn) [Compound 102, CH3—(CH2)9—SO2-Gly-Amphomycin-9-Gly] (X19-GD[ξAbu(βξ-NH2)][Pip][ξAsp(βξ-Me)]DGDG[ξAbu(3ξ-NHCOCH2NH2)]VP; lactam 3-C; configuration not given here), the MIC was found to be 8 µg/mL.

Take `CCCCCCCCCCCC(=O)Nc1ccc(C(=O)NC(CC(=O)O)C(=O)NC2C(=O)N3CCCCC3C(=O)NC(C(C)C(=O)O)C(=O)NC(CC(=O)O)C(=O)NCC(=O)NC(CC(=O)O)C(=O)NCC(=O)NC(C(C)NC(=O)CN)C(=O)NC(C(C)C)C(=O)N3CCCC3C(=O)NC2C)cc1` (stereo not drawn) [Compound 87, C12-PABA-Amphomycin-9-Gly]: the MIC lay within 0.25 to 0.5 µg/mL.

On to `CCCCCCCCCCC(=O)NC(CC(=O)O)C(=O)NC1C(=O)N2CCCCC2C(=O)NC(C(C)C(=O)O)C(=O)NC(CC(=O)O)C(=O)NCC(=O)NC(CC(=O)O)C(=O)NCC(=O)NC(C(C)N)C(=O)NC(C(C)C)C(=O)N2CCCC2C(=O)NC1C` (stereo not drawn) [Compound 7, C11-Amphomycin], for which the MIC fell in the range of 32 to 64 µg/mL.

For the compound `CCCCCCCCCCCCCCC(=O)NC(CC(=O)O)C(=O)NC1C(=O)N2CCCCC2C(=O)NC(C(C)C(=O)O)C(=O)NC(CC(=O)O)C(=O)NCC(=O)NC(CC(=O)O)C(=O)NCC(=O)NC(C(C)NC(=O)CNC(=O)[C@@H](N)CCCCCN)C(=O)NC(C(C)C)C(=O)N2CCCC2C(=O)NC1C` (stereo partly drawn) [Compound 158, C15-Amphomycin-9-Gly-hLys], the MIC was 1 to 2 µg/mL.

Consider `CCCCCCCCCCS(=O)(=O)N[C@@H](Cc1ccccc1)C(=O)NC(CC(=O)O)C(=O)NC1C(=O)N2CCCCC2C(=O)NC(C(C)C(=O)O)C(=O)NC(CC(=O)O)C(=O)NCC(=O)NC(CC(=O)O)C(=O)NCC(=O)NC(C(C)N)C(=O)NC(C(C)C)C(=O)N2CCCC2C(=O)NC1C` (stereo partly drawn) [Compound 100, CH3—(CH2)9—SO2-Phe-Amphomycin] (X19-F[ξD][ξAbu(βξ-NH2)][ξPip][ξAsp(βξ-Me)][ξD]G[ξD]G[ξAbu(3ξ-NH2)][ξV][ξP]; lactam 3-C), for which the MIC is 4 µg/mL.

For the compound `CCCCCCCCCCCCCCC(=O)NC(CC(=O)O)C(=O)NC1C(=O)N2CCCCC2C(=O)NC(C(C)C(=O)O)C(=O)NC(CC(=O)O)C(=O)NCC(=O)NC(CC(=O)O)C(=O)NCC(=O)NC(C(C)NC(=O)CN(C)C(=O)CCCCCN)C(=O)NC(C(C)C)C(=O)N2CCCC2C(=O)NC1C` (stereo not drawn) [Compound 198, C15-Amphomycin-9-Sar-Ahx], the MIC was 4 µg/mL.

Consider `CCCCCCCCCCCC(=O)Nc1ccc(CC(=O)NC(CC(=O)O)C(=O)NC2C(=O)N3CCCCC3C(=O)NC(C(C)C(=O)O)C(=O)NC(CC(=O)O)C(=O)NCC(=O)NC(CC(=O)O)C(=O)NCC(=O)NC(C(C)NC(=O)CN)C(=O)NC(C(C)C)C(=O)N3CCCC3C(=O)NC2C)cc1` (stereo not drawn) [Compound 86, C12-(p-Apa)-Amphomycin-9-Gly] (Lauroyl-[X1]D[ξAbu(βξ-NH2)][Pip][ξAsp(βξ-Me)]DGDG[ξAbu(3ξ-NHCOCH2NH2)]VP; lactam 3-C; configuration not given here), for which the MIC worked out at 0.25 µg/mL.

For the compound `CCCCCCCCCC(=O)Nc1cccc(CC(=O)NC(CC(=O)O)C(=O)NC2C(=O)N3CCCCC3C(=O)NC(C(C)C(=O)O)C(=O)NC(CC(=O)O)C(=O)NCC(=O)NC(CC(=O)O)C(=O)NCC(=O)NC(C(C)N)C(=O)NC(C(C)C)C(=O)N3CCCC3C(=O)NC2C)c1` (stereo not drawn) [Compound 113, C10-(M-Apa)-Amphomycin] (Decanoyl-[Phac(3-amino)]D[ξAbu(βξ-NH2)][Pip][ξAsp(βξ-Me)]DGDG[ξAbu(3ξ-NH2)]VP; lactam 3-C; configuration not given here), the MIC came out at 16 µg/mL.

Regarding `CCCCCCCCCCCCCCC(=O)NC(CC(=O)O)C(=O)NC1C(=O)N2CCCCC2C(=O)NC(C(C)C(=O)O)C(=O)NC(CC(=O)O)C(=O)NCC(=O)NC(CC(=O)O)C(=O)NCC(=O)NC(C(C)NC(=O)CCCCCCC)C(=O)NC(C(C)C)C(=O)N2CCCC2C(=O)NC1C` (stereo not drawn) [Compound 205, C15-Amphomycin-9-C8], the MIC came to 16 µg/mL.

With `CCCCCCCCCCCC(=O)NCC(=O)NC(CC(=O)O)C(=O)NC1C(=O)N2CCCCC2C(=O)NC(C(C)C(=O)O)C(=O)NC(CC(=O)O)C(=O)NCC(=O)NC(CC(=O)O)C(=O)NCC(=O)NC(C(C)N)C(=O)NC(C(C)C)C(=O)N2CCCC2C(=O)NC1C` (stereo not drawn) [Compound 103, C12-Gly-Amphomycin] (Lauroyl-GD[ξAbu(βξ-NH2)][Pip][ξAsp(βξ-Me)]DGDG[ξAbu(3ξ-NH2)]VP; lactam 3-C; configuration not given here), the MIC lay in the range of 8 to 16 µg/mL.

Still in this assay, the particulars now being: S. aureus (MSSA), CAMHB supplemented with 0.625 mM calcium, 24 hours at about 37° C.; a range = compound tested multiple times.
Regarding “β-Isomer of CH3—(CH2)10—NH—C(═O)-(GABA)-Amphomycin [Compound 330]”, the MIC was >64^† μg/mL.

With `CCCCCCCCCCCCC(=O)NC(CC(=O)O)C(=O)NC1C(=O)N2CCCCC2C(=O)NC(C(C)C(=O)O)C(=O)NC(CC(=O)O)C(=O)NCC(=O)NC(CC(=O)O)C(=O)NCC(=O)NC(C(C)NC(=O)CCN)C(=O)NC(C(C)C)C(=O)N2CCCC2C(=O)NC1C` (stereo not drawn) [Compound 54, C13-Amphomycin-9-(β-Ala)], the MIC is 54/2-4 μg/mL.

Turning to `CCCCCCCCCCCCCC(=O)NC(CC(=O)O)C(=O)NC1C(=O)N2CCCCC2C(=O)NC(C(C)C(=O)O)C(=O)NC(CC(=O)O)C(=O)NCC(=O)NC(CC(=O)O)C(=O)NCC(=O)NC(C(C)NC(=O)CCCN)C(=O)NC(C(C)C)C(=O)N2CCCC2C(=O)NC1C` (stereo not drawn) [Compound 62, C14-Amphomycin-9-GABA], the MIC is 62/0.5-1 μg/mL.

Consider `CCCCCCCCCCCCCC(=O)NC(CC(=O)O)C(=O)NC1C(=O)N2CCCCC2C(=O)NC(C(C)C(=O)O)C(=O)NC(CC(=O)O)C(=O)NCC(=O)NC(CC(=O)O)C(=O)NCC(=O)NC(C(C)NC(=O)CN)C(=O)NC(C(C)C)C(=O)N2CCCC2C(=O)NC1C` (stereo not drawn) [Compound 23, C14-Amphomycin-9-Gly], for which the MIC is listed as 23/8-16 μg/mL.

“C15-Amphomycin-9-(Carbamoyl-Leu) [Compound 204]”: the MIC is 16 µg/mL.
